Patent US9561231B2 (AbbVie Inc., priority 2012, dated 2017)

What was measured:
[1] = target: T1, first (BD1: amino acids K57-E168) bromodomain of BRD4 (Homo sapiens, UniProt O60885); assay: TR-FRET bromodomain binding assay, BRD4 BD1; details: TR-FRET assay protocol (A-G, compound concentration range); Ki calculated from IC50, probe Kd and probe concentration; read-out: TR-FRET Binding Ki: BRD4 (BDI_K57-E168)
T1 construct: His-tagged first (BD1: amino acids K57-E168)
Procedure, shortened: (§1)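 Displacement of an Alexa647-labelled BET-inhibitor from His-tagged BD1 (K57-E168) or BD2 ([…]) measured by TR-FRET in pH 6.0 sodium phosphate buffer with NaCl, EDTA, Triton X-100 and DTT.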

[2] = target: T2, second (BD2: amino acids E352-E168) bromodomain of BRD4 (Homo sapiens, UniProt O60885); assay: TR-FRET bromodomain binding assay, BRD4 BD2; details: TR-FRET assay protocol (A-G, compound concentration range); Ki calculated from IC50, probe Kd and probe concentration; read-out: TR-FRET Binding Ki: BRD4 (BDII_E352-M457)
T2 construct: protocol
Procedure, shortened: as §1

## CN(C)C(=O)c1cc(-c2cc(=O)n(C)nc2-c2ccccc2Oc2ccccc2)ccc1F [Example 155, 2-fluoro-N,N-dimethyl-5-[1-methyl-6-oxo-3-(2-phenoxyphenyl)-1,6-dihydropyridazin-4-yl]benzamide]
[1]
  Ki: 5520 nM
[2]
  Ki: 6900 nM

## Cn1nc(-c2ccccc2Oc2ccccc2)c(-c2cccc(S(=O)(=O)N3CCCC3)c2)cc1=O [Example 156, 2-methyl-6-(2-phenoxyphenyl)-5-[3-(pyrrolidin-1-ylsulfonyl)phenyl]pyridazin-3(2H)-one]
[1]
  Ki: > 13000 nM
[2]
  Ki: 13100 nM

## Cn1nc(-c2ccccc2Oc2ccccc2)c(-c2cccc(C(=O)N3CCCCC3)c2)cc1=O [Example 157, 2-methyl-6-(2-phenoxyphenyl)-5-[3-(piperidin-1-ylcarbonyl)phenyl]pyridazin-3(2H)-one]
[1]
  Ki: 5510 nM
[2]
  Ki: 4750 nM

## CCN(CC)C(=O)c1ccc(-c2cc(=O)n(C)nc2-c2ccccc2Oc2ccccc2)cc1 [Example 158, N,N-diethyl-4-[1-methyl-6-oxo-3-(2-phenoxyphenyl)-1,6-dihydropyridazin-4-yl]benzamide]
[1]
  Ki: 604 nM
[2]
  Ki: 529 nM

## CNS(=O)(=O)c1ccc(-c2cc(=O)n(C)nc2-c2ccccc2Oc2ccccc2)cc1 [Example 159, N-methyl-4-[1-methyl-6-oxo-3-(2-phenoxyphenyl)-1,6-dihydropyridazin-4-yl]benzenesulfonamide]
[1]
  Ki: 5450 nM
[2]
  Ki: 8420 nM

## CCN(CC)C(=O)c1cccc(-c2cc(=O)n(C)nc2-c2ccccc2Oc2ccccc2)c1 [Example 160, N,N-diethyl-3-[1-methyl-6-oxo-3-(2-phenoxyphenyl)-1,6-dihydropyridazin-4-yl]benzamide]
[1]
  Ki: 8540 nM
[2]
  Ki: 10200 nM

## Cn1nc(-c2ccccc2Oc2ccccc2)c(-c2ccc(NCCN3CCOCC3)nc2)cc1=O [Example 162, 2-methyl-5-(6-{[2-(morpholin-4-yl)ethyl]amino}pyridin-3-yl)-6-(2-phenoxyphenyl)pyridazin-3(2H)-one]
[1]
  Ki: 109 nM
[2]
  Ki: 75.1 nM

## CN(C)CCCNC(=O)c1cccc(-c2cc(=O)n(C)nc2-c2ccccc2Oc2ccccc2)c1 [Example 163, N-[3-(dimethylamino)propyl]-3-[1-methyl-6-oxo-3-(2-phenoxyphenyl)-1,6-dihydropyridazin-4-yl]benzamide]
[1]
  Ki: 1990 nM
[2]
  Ki: 366 nM

## Cn1nc(-c2ccccc2Oc2ccccc2)c(-c2ccc(NCc3ccccc3)nc2)cc1=O [Example 164, 5-[6-(benzylamino)pyridin-3-yl]-2-methyl-6-(2-phenoxyphenyl)pyridazin-3(2H)-one]
[1]
  Ki: 1510 nM
[2]
  Ki: 245 nM

## Cn1nc(-c2ccccc2Oc2ccccc2)c(-c2ccc(C(=O)NCCC#N)cc2)cc1=O [Example 165, N-(2-cyanoethyl)-4-[1-methyl-6-oxo-3-(2-phenoxyphenyl)-1,6-dihydropyridazin-4-yl]benzamide]
[1]
  Ki: 567 nM
[2]
  Ki: 492 nM

## Cc1cc(-c2cc(=O)n(C)nc2-c2ccccc2Oc2ccccc2)cnc1N1CCOCC1 [Example 166, 2-methyl-5-[5-methyl-6-(morpholin-4-yl)pyridin-3-yl]-6-(2-phenoxyphenyl)pyridazin-3(2H)-one]
[1]
  Ki: 705 nM
[2]
  Ki: 1010 nM

## CCN(CC)C(=O)c1cc(F)cc(-c2cc(=O)n(C)nc2-c2ccccc2Oc2ccccc2)c1 [Example 167, N,N-diethyl-3-fluoro-5-[1-methyl-6-oxo-3-(2-phenoxyphenyl)-1,6-dihydropyridazin-4-yl]benzamide]
[1]
  Ki: 5430 nM
[2]
  Ki: 7370 nM

## Cn1nc(-c2ccccc2Oc2ccccc2)c(-c2ccc(C(=O)NC(C)(C)C)cc2)cc1=O [Example 168, N-tert-butyl-4-[1-methyl-6-oxo-3-(2-phenoxyphenyl)-1,6-dihydropyridazin-4-yl]benzamide]
[1]
  Ki: 1070 nM
[2]
  Ki: 993 nM

## Cn1nc(-c2ccccc2Oc2ccccc2)c(-c2ccc(C(=O)NC3CCCC3)cc2)cc1=O [Example 169, N-cyclopentyl-4-[1-methyl-6-oxo-3-(2-phenoxyphenyl)-1,6-dihydropyridazin-4-yl]benzamide]
[1]
  Ki: 599 nM
[2]
  Ki: 562 nM

## CC(C)CNC(=O)c1ccc(-c2cc(=O)n(C)nc2-c2ccccc2Oc2ccccc2)cc1 [Example 170, 4-[1-methyl-6-oxo-3-(2-phenoxyphenyl)-1,6-dihydropyridazin-4-yl]-N-(2-methylpropyl)benzamide]
[1]
  Ki: 1670 nM
[2]
  Ki: 1620 nM

## COCCCNC(=O)c1ccc(-c2cc(=O)n(C)nc2-c2ccccc2Oc2ccccc2)cc1 [Example 171, N-(3-methoxypropyl)-4-[1-methyl-6-oxo-3-(2-phenoxyphenyl)-1,6-dihydropyridazin-4-yl]benzamide]
[1]
  Ki: 253 nM
[2]
  Ki: 215 nM

## Cn1nc(-c2ccccc2Oc2ccccc2)c(-c2cnn(CCN3CCOCC3)c2)cc1=O [Example 172, 2-methyl-5-{1-[2-(morpholin-4-yl)ethyl]-1H-pyrazol-4-yl}-6-(2-phenoxyphenyl)pyridazin-3(2H)-one]
[1]
  Ki: 572 nM
[2]
  Ki: 593 nM

## COCCNC(=O)c1ccc(-c2cc(=O)n(C)nc2-c2ccccc2Oc2ccccc2)cc1 [Example 173, N-(2-methoxyethyl)-4-[1-methyl-6-oxo-3-(2-phenoxyphenyl)-1,6-dihydropyridazin-4-yl]benzamide]
[1]
  Ki: 805 nM
[2]
  Ki: 545 nM

## CN1CCN(c2cc(-c3cc(=O)n(C)nc3-c3ccccc3Oc3ccccc3)ccn2)CC1 [Example 174, 2-methyl-5-[2-(4-methylpiperazin-1-yl)pyridin-4-yl]-6-(2-phenoxyphenyl)pyridazin-3(2H)-one]
[1]
  Ki: 854 nM
[2]
  Ki: 764 nM

## Cn1nc(-c2ccccc2Oc2ccccc2)c(-c2cccc(C(=O)N3CCOCC3)c2)cc1=O [Example 175, 2-methyl-5-[3-(morpholin-4-ylcarbonyl)phenyl]-6-(2-phenoxyphenyl)pyridazin-3(2H)-one]
[1]
  Ki: 2950 nM
[2]
  Ki: 2490 nM

## Cc1nnc(-c2cccc(-c3cc(=O)n(C)nc3-c3ccccc3Oc3ccccc3)c2)o1 [Example 176, 2-methyl-5-[3-(5-methyl-1,3,4-oxadiazol-2-yl)phenyl]-6-(2-phenoxyphenyl)pyridazin-3(2H)-one]
[1]
  Ki: 3660 nM
[2]
  Ki: 2080 nM

## Cn1nc(-c2ccccc2Oc2ccccc2)c(-c2cccc(C(=O)NC3CC3)c2)cc1=O [Example 177, N-cyclopropyl-3-[1-methyl-6-oxo-3-(2-phenoxyphenyl)-1,6-dihydropyridazin-4-yl]benzamide]
[1]
  Ki: 4170 nM
[2]
  Ki: 1070 nM

## Cn1nc(-c2ccccc2Oc2ccccc2)c(-c2ccc(S(=O)(=O)N3CCCC3)cc2)cc1=O [Example 178, 2-methyl-6-(2-phenoxyphenyl)-5-[4-(pyrrolidin-1-ylsulfonyl)phenyl]pyridazin-3(2H)-one]
[1]
  Ki: 3340 nM
[2]
  Ki: 4540 nM

## Cn1nc(-c2ccccc2Oc2ccccc2)c(-c2ccc(N3CCOCC3)nc2)cc1=O [Example 179, 2-methyl-5-[6-(morpholin-4-yl)pyridin-3-yl]-6-(2-phenoxyphenyl)pyridazin-3(2H)-one]
[1]
  Ki: 923 nM
[2]
  Ki: 488 nM

## CCN(CC)C(=O)c1cc(-c2cc(=O)n(C)nc2-c2ccccc2Oc2ccccc2)ccc1F [Example 181, N,N-diethyl-2-fluoro-5-[1-methyl-6-oxo-3-(2-phenoxyphenyl)-1,6-dihydropyridazin-4-yl]benzamide]
[1]
  Ki: 3950 nM
[2]
  Ki: 6160 nM
